Patent US11813353B2, “Pharmaceutical compositions for the nasal administration of a cobalamin compound” (INNOTESTO BV, priority 2020, dated 2023)
Like-named read-outs stand apart in the source and are kept apart here.

Legend:
[1] = about 0.1% (w/w); versus benzalkonium chloride; cited from earlier work
nasal epithelial cells = conditions: 1% concentration; cited from earlier work
[2] = Nasal absorption of hydroxocobalamin nasal spray in healthy volunteers; format: in vivo, human
Procedure: Healthy volunteers received a dose of 500 μg hydroxocobalamin in 50 μl nasal spray containing as main constituents hydroxocobalamin, mannitol 10% w/v, propylene glycol 10% v/v and water (total dose 500 μg hydroxocobalamin HCl) using an Aptar VP7 spray pump. The following increases of hydroxocobalamin blood levels (increase from C t=0 to Cmax after 30 minutes) were measured: […]

[3] = geriatric patients, cited from earlier work
[4] = 6 Crohn's disease patients, 1500 μg nasal, cited from earlier work
[5] = healthy volunteers, 500 μg nasal spray

C/C=C/C=C/C(=O)[O-].[K+] [potassium sorbate]
safety as a preservative in nasal products [1]: much more safe than benzalkonium chloride

OC[C@@H](O)[C@@H](O)[C@H](O)[C@H](O)CO [mannitol]
cellular damage (nasal epithelial cells): no cellular damage

C/C1=C2/[N-][C@H]([C@H](CC(N)=O)[C@@]2(C)CCC(=O)NC[C@@H](C)OP(=O)([O-])O[C@H]2[C@@H](O)[C@@H](n3cnc4cc(C)c(C)cc43)O[C@@H]2CO)[C@]2(C)N=C(/C(C)=C3N=C(/C=C4N=C1[C@@H](CCC(N)=O)C\4(C)C)[C@@H](CCC(N)=O)[C@]\3(C)CC(N)=O)[C@@H](CCC(N)=O)[C@]2(C)CC(N)=O.[Co+3].[OH-] [hydroxocobalamin]
irritation in the nose [2, 5]: None of the volunteers | presence of red crustae in the nose afterwards [2, 5]: None of the volunteers | CV (coefficient of variation) of mean increase ([2]; healthy volunteers, 500 μg nasal spray, mannitol 10% w/v, propylene glycol 10% v/v): 23% | vitamin B12 Cmax levels ([2]; healthy volunteers, 500 μg nasal spray, exceeded in none of the volunteers): ≤ 1.5 ng/mL | Mean increase per 500 μg Hydroxocobalamin ([2]; healthy volunteers, nasal spray, mannitol 10% w/v, propylene glycol 10% v/v, water, SD=127 pg/ml): 549 pg/mL | increase of hydroxocobalamin blood levels, alternative composition ([2]; nasal spray with mannitol 5% w/v, propylene glycol 15% v/v and water): Comparable results | Cmax levels (±SD) after nasal administration ([3]; dose of 750 μg): 2.7 ± 1.2 ng/mL | Cmax levels (±SD) after nasal administration ([3]; dose): 4.7 ± 3.4 ng/mL | mean increase in vitamin B12 level ([4]; three days, SD 645 pg/ml): 1520 pg/mL | CV (coefficient of variation) of mean increase [4]: 42.5%
